Values after ≈ are worked out from the molar mass of the structure shown. Where a name gives a salt, the structure may show the parent alone. Read-outs that look alike come from different tables or passages of the source. Bounds are passed on as bounds.

Assay type in all cases: cell-based
The test system of one test is Proteus vulgaris OX19. In words: Minimum Growth Inhibitory Concentration (MIC), Proteus vulgaris OX19. Particulars: Table 1, bacterium 5: Proteus vulgaris OX19. The text has this: (§1) Minimum Growth Inhibitory Concentration (MIC) mcg/ml
5. Proteus vulgaris OX19

In test [1] the test system is Pseudomonas aeruginosa MB 3833. The test can be described thus: Minimum Growth Inhibitory Concentration (MIC), Pseudomonas aeruginosa MB 3833. To be noted: MB3833; Table 1, bacterium 8: Pseudomonas aeruginosa MB 3833.
Excerpt: as §1
8. Pseudomonas aeruginosa MB 3833

The next test relates to Serratia marcescens N 01. In words: Minimum Growth Inhibitory Concentration (MIC), Serratia marcescens N 01. To be noted: N01; Table 1, bacterium 7: Serratia marcescens N 01.
Excerpt: as §1
7. Serratia marcescens N 01

In test [2] the test system is Enterobacter cloacae G0006. The test can be described thus: Minimum Growth Inhibitory Concentration (MIC), Enterobacter cloacae G0006. To be noted: Table 1, bacterium 6: Enterobacter cloacae G0006.
Excerpt: as §1
6. Enterobacter cloacae G0006

For test [3], the system named is Klebsiella pneumoniae GN 69. In words: Minimum Growth Inhibitory Concentration (MIC), Klebsiella pneumoniae GN 69. To be noted: GN69; Table 1, bacterium 4: Klebsiella pneumoniae GN 69.
Excerpt: as §1
4. Klebsiella pneumoniae GN 69

The subject of the next test is Escherichia coli RGN 823. In words: Minimum Growth Inhibitory Concentration (MIC), Escherichia coli RGN 823. Particulars: RGN823; Table 1, bacterium 3: Escherichia coli RGN 823.
Excerpt: as §1
3. Escherichia coli RGN 823

In another test the test system is Bacillus subtilis. In words: Minimum Growth Inhibitory Concentration (MIC), Bacillus subtilis. To be noted: Table 1, bacterium 2: Bacillus subtilis.
Excerpt: as §1

The subject of test [4] is Staphylococcus aureus 209PJC1. The test can be described thus: Minimum Growth Inhibitory Concentration (MIC), Staphylococcus aureus 209PJC1. Particulars: read-out: Minimum Growth Inhibitory Concentration (MIC).
Excerpt: as §1
1. Staphylococcus aureus 209PJC1
as §1
2. Staphylococcus aureus 209 PJC1

Test [5] deals with Streptococcus faecalis ATCC 8043. The test can be described thus: Minimum Growth Inhibitory Concentration (MIC), Streptococcus faecalis ATCC 8043. To be noted: Enterococcus faecalis, ATCC8043; Table 1, bacterium 9: Streptococcus faecalis ATCC 8043.
Excerpt: as §1
9. Streptococcus faecalis ATCC 8043

Test [6] concerns Enterobacter cloacae G0005. In words: Minimum Growth Inhibitory Concentration (MIC), Enterobacter cloacae G0005. To be noted: Table 1, bacterium 11: Enterobacter cloacae G0005.
Excerpt: as §1
11. Enterobacter cloacae G0005

In another test the test system is Proteus vulgaris GN 76. In words: Minimum Growth Inhibitory Concentration (MIC), Proteus vulgaris GN 76. Particulars: GN76, read-out: Minimum Growth Inhibitory Concentration (MIC).
Excerpt: as §1
10. Proteus vulgaris GN 76
as §1
8. Proteus vulgaris GN 76

The subject of test [7] is Serratia marcescens No. 1. In words: Minimum Growth Inhibitory Concentration (MIC), Serratia marcescens No. 1. Particulars: Table 2, bacterium 11: Serratia marcescens No. 1.
Excerpt: as §1
11. Serratia marcescens No. 1

The next test has as its system Eshcerichia coli GN 206. The test can be described thus: Minimum Growth Inhibitory Concentration (MIC), Escherichia coli GN 206. Particulars: GN206, Table 2, bacterium 4: Eshcerichia coli GN 206, read-out: Minimum Growth Inhibitory Concentration (MIC).
Excerpt: as §1
4. Eshcerichia coli GN 206

Test [8] relates to Salmonella typhimurium LT2. In words: Minimum Growth Inhibitory Concentration (MIC), Salmonella typhimurium LT2. To be noted: Salmonella enterica; Table 2, bacterium 7: Salmonella typhimurium LT2; read-out: Minimum Growth Inhibitory Concentration (MIC).
Excerpt: as §1
7. Salmonella typhimurium LT2

Test [9] relates to Escherichia coli NIHJ JC2. The test can be described thus: Minimum Growth Inhibitory Concentration (MIC), Escherichia coli NIHJ JC2. To be noted: NIHJJC2; Table 2, bacterium 3: Escherichia coli NIHJ JC2; read-out: Minimum Growth Inhibitory Concentration (MIC).
Excerpt: as §1
3. Escherichia coli NIHJ JC2

A further test relates to Proteus mirabilis GN 79. In words: Minimum Growth Inhibitory Concentration (MIC), Proteus mirabilis GN 79. Particulars: GN79; Table 2, bacterium 6: Proteus mirabilis GN 79; read-out: Minimum Growth Inhibitory Concentration (MIC).
Excerpt: as §1
6. Proteus mirabilis GN 79

Test [10] deals with Klebsiella pneumoniae PCI 602. In words: Minimum Growth Inhibitory Concentration (MIC), Klebsiella pneumoniae PCI 602. Particulars: PCI602; Table 2, bacterium 5: Klebsiella pneumoniae PCI 602; read-out: Minimum Growth Inhibitory Concentration (MIC).
Excerpt: as §1
5. Klebsiella pneumoniae PCI 602

In test [11] the test system is Staphylococcus aureus Smith. In words: Minimum Growth Inhibitory Concentration (MIC), Staphylococcus aureus Smith. Particulars: Table 2, bacterium 1: Staphylococcus aureus Smith; read-out: Minimum Growth Inhibitory Concentration (MIC).
Excerpt: as §1
1. Staphylococcus aureus Smith

The subject of another test is Proteus rettgeri GN624. The test can be described thus: Minimum Growth Inhibitory Concentration (MIC), Proteus rettgeri GN624. Particulars: Providencia rettgeri; Table 2, bacterium 9: Proteus rettgeri GN624; read-out: Minimum Growth Inhibitory Concentration (MIC).
Excerpt: as §1
9. Proteus rettgeri GN624

Setting [12] is: Table 1, bacterium 1: Staphylococcus aureus 209PJC1.
Setting [13] is: Table 1, bacterium 10: Proteus vulgaris GN 76.

Take `CO/N=C(\C(=O)N[C@@H]1C(=O)N2C(C(=O)[O-])=C(CSc3ccc4c([n+]3C)CCC4)CS[C@H]12)c1csc(N)n1` [Example 1, (6R,7R)-7-[(Z)-2-(2-Aminothiazol-4-yl)-2-methoxyiminoacetamido]-3-[(5,6-cyclopenteno-1-methylpyridinium-2-yl)thiomethyl]-ceph-3-em-4-carboxylate]: the MIC was 0.39 µg/mL (≈ 0.696 µM) in the test on Proteus vulgaris OX19; 12.5 µg/mL (≈ 22.3 µM) in [1]; 0.05 µg/mL (≈ 0.0892 µM) with Serratia marcescens N 01; 1.56 µg/mL (≈ 2.78 µM) in test [2]; no more than 0.025 µg/mL in test [3]; no more than 0.025 µg/mL against Escherichia coli RGN 823. The MIC against Bacillus subtilis worked out at 1.56 µg/mL (≈ 2.78 µM); in test [4] (setting [12]) it was 0.2 µg/mL (≈ 0.357 µM).
With `CO/N=C(\C(=O)N[C@@H]1C(=O)N2C(C(=O)[O-])=C(CSc3cc[n+](C)c4c3CCC4)CS[C@H]12)c1csc(N)n1` [Example 2, (6R,7R)-7-[(Z)-2-(2-Aminothiazol-4-yl)-2-methoxyiminoacetamido]-3-[(2,3-cyclopenteno-1-methylpyridinium-4-yl)thiomethyl]-ceph-3-em-4-carboxylate], the MIC is 0.1 µg/mL (≈ 0.178 µM) in the test on Proteus vulgaris OX19; 6.25 µg/mL (≈ 11.1 µM) in test [1]; 0.05 µg/mL (≈ 0.0892 µM) with Serratia marcescens N 01; 0.78 µg/mL (≈ 1.39 µM) in test [2]; no more than 0.025 µg/mL in test [3]; no more than 0.025 µg/mL against Escherichia coli RGN 823. The MIC came out at 1.56 µg/mL (≈ 2.78 µM) in the test on Bacillus subtilis and 0.05 µg/mL (≈ 0.0892 µM) in test [4] (setting [12]).
With `CO/N=C(\C(=O)N[C@@H]1C(=O)N2C(C(=O)[O-])=C(CSc3cc(C)[n+](C)c4c3CCC4)CS[C@H]12)c1csc(N)n1` [Example 4, (6R,7R)-7-[(Z)-2-(2-Aminothiazol-4-yl)-2-methoxyiminoacetamido]-3-[(6-methyl-2,3-cyclopenteno-1-methylpyridinium-4-yl)thiomethyl]-ceph-3-em-4-carboxylate], the MIC in the test with Proteus vulgaris OX19 is 0.2 µg/mL (≈ 0.348 µM); in test [1] it was 6.25 µg/mL (≈ 10.9 µM); with Serratia marcescens N 01, 0.1 µg/mL (≈ 0.174 µM); in test [2], 0.78 µg/mL (≈ 1.36 µM); in test [3] it was 0.1 µg/mL (≈ 0.174 µM); against Escherichia coli RGN 823, 0.1 µg/mL (≈ 0.174 µM). For the same compound, the MIC against Bacillus subtilis stood at 0.2 µg/mL (≈ 0.348 µM); in test [4] (setting [12]), 0.1 µg/mL (≈ 0.174 µM).
As to `Cc1cc(SCC2=C(C(=O)[O-])N3C(=O)[C@@H](NC(=O)/C(=N\OC[C@@H](N)C(=O)O)c4csc(N)n4)[C@H]3SC2)c2c([n+]1C)CCCC2` [Example 12, (6R,7R)-7-[(Z)-2-(2-Aminothiazol-4-yl)-2-(2D-2-amino-2-carboxyethoxyimino)acetamido]-3-[(6-methyl-2,3-cyclohexeno-1-methylpyridinium-4-yl)thiomethyl]-ceph-3-em-4-carboxylate], the MIC stood at 1.56 µg/mL (≈ 2.36 µM) against Proteus vulgaris OX19; 50 µg/mL (≈ 75.6 µM) in test [1]; 1.56 µg/mL (≈ 2.36 µM) against Serratia marcescens N 01; 6.25 µg/mL (≈ 9.44 µM) in test [2]; 0.78 µg/mL (≈ 1.18 µM) in [3]; 1.56 µg/mL (≈ 2.36 µM) in the test on Escherichia coli RGN 823. The MIC worked out at 12.5 µg/mL (≈ 18.9 µM) in the test with Bacillus subtilis and 3.13 µg/mL (≈ 4.73 µM) in test [4] (setting [12]).
For `C[n+]1c(SCC2=C(C(=O)[O-])N3C(=O)[C@@H](NC(=O)/C(=N\OC(C)(C)C(=O)O)c4csc(N)n4)[C@H]3SC2)ccc2c1CCCC2` [Example 18, (6R,7R)-7-[(Z)-2-(2-Aminothiazol-4-yl)-2-(1-methyl-1-carboxyethoxyimino)acetamido]-3-[(5,6-cyclohexeno-1-methylpyridinium-2-yl)thiomethyl]-ceph-3-em-4-carboxylate], the MIC stood at 0.1 µg/mL (≈ 0.155 µM) in the test on Proteus vulgaris OX19; 6.25 µg/mL (≈ 9.66 µM) in [1]; 0.05 µg/mL (≈ 0.0773 µM) in the test on Serratia marcescens N 01; 6.25 µg/mL (≈ 9.66 µM) in test [2]; 0.39 µg/mL (≈ 0.603 µM) in [3]; 0.2 µg/mL (≈ 0.309 µM) with Escherichia coli RGN 823. Besides, the MIC turned out to be 12.5 µg/mL (≈ 19.3 µM) against Bacillus subtilis and 1.56 µg/mL (≈ 2.41 µM) in [4] (setting [12]).
On to `CO/N=C(\C(=O)N[C@@H]1C(=O)N2C(C(=O)[O-])=C(CSc3cc[n+](CC(N)=O)c4c3CCC4)CS[C@H]12)c1csc(N)n1` [Example 35, (6R,7R)-7-[(Z)-2-(2-Aminothiazol-4-yl)-2-methoxyiminoacetamido]-3-[(2,3-cyclopenteno-1-carbamoylmethylpyridinium-4-yl)thiomethyl]-ceph-3-em-4-carboxylate], for which the MIC in test [5] was 0.2 µg/mL (≈ 0.331 µM); in [1], 12.5 µg/mL (≈ 20.7 µM); against Serratia marcescens N 01, 0.1 µg/mL (≈ 0.166 µM); in [6] it was 0.2 µg/mL (≈ 0.331 µM); in the test with Proteus vulgaris GN 76 (setting [13]), 0.39 µg/mL (≈ 0.646 µM); in test [3], 0.05 µg/mL (≈ 0.0828 µM). Moreover, the MIC amounted to 0.1 µg/mL (≈ 0.166 µM) against Escherichia coli RGN 823, 0.2 µg/mL (≈ 0.331 µM) in the test on Bacillus subtilis and 0.1 µg/mL (≈ 0.166 µM) in test [4] (setting [12]).
For `CO/N=C(\C(=O)N[C@@H]1C(=O)N2C(C(=O)[O-])=C(CSc3cc[n+](CCS(=O)(=O)O)c4c3CCC4)CS[C@H]12)c1csc(N)n1` [Example 39, (6R,7R)-7-[(Z)-2-(2-Aminothiazol-4-yl)-2-methoxyiminoacetamido]-3-[[2,3-cyclopenteno-1-(2-sulfoethyl)pyridinium-4-yl]thiomethyl]-ceph-3-em-4-carboxylic acid sodium salt], the MIC was 6.25 µg/mL in [5]; 12.5 µg/mL in test [1]; no more than 0.025 µg/mL against Serratia marcescens N 01; 0.1 µg/mL in test [6]; 0.2 µg/mL in the test with Proteus vulgaris GN 76 (setting [13]); no more than 0.025 µg/mL in [3]. Also, the MIC was no more than 0.025 µg/mL in the test on Escherichia coli RGN 823, 1.56 µg/mL in the test on Bacillus subtilis and 0.78 µg/mL in test [4] (setting [12]).
`CO/N=C(\C(=O)N[C@@H]1C(=O)N2C(C(=O)[O-])=C(CSc3cc[n+](CCF)cc3)CS[C@H]12)c1csc(N)n1` [Example 84, (6R,7R)-7-[(Z)-2-(2-Aminothiazol-4-yl)-2-methoxyiminoacetamido]-3-[1-(2-fluoroethylpyridinium-4-yl)thiomethyl]-ceph-3-em-4-carboxylate]: the MIC in test [7] is 0.025 µg/mL (≈ 0.0452 µM); with Eshcerichia coli GN 206, less than 0.025 µg/mL; in test [8], 0.05 µg/mL (≈ 0.0905 µM); in [9], 0.05 µg/mL (≈ 0.0905 µM); with Proteus vulgaris GN 76 (Table 2, bacterium 8: Proteus vulgaris GN 76) it was 0.2 µg/mL (≈ 0.362 µM); in the test with Proteus mirabilis GN 79, 0.39 µg/mL (≈ 0.706 µM). Moreover, the MIC in test [10] turned out to be 0.1 µg/mL (≈ 0.181 µM); in test [11], 0.2 µg/mL (≈ 0.362 µM); in test [4] (Table 2, bacterium 2: Staphylococcus aureus 209 PJC1), 0.2 µg/mL (≈ 0.362 µM); in the test with Proteus rettgeri GN624 it was 0.1 µg/mL (≈ 0.181 µM).

The record behind these values is patent US4785090A, “Cephalosporin derivatives” (Meiji Seika Kaisha, Ltd., priority 1984, dated 1988).
